Results reported in patent US20210179577A1, “AROMATIC SULFONAMIDE DERIVATIVES FOR THE TREATMENT OF ISCHEMIC STROKE” (Bayer Aktiengesellschaft, priority 2017, published 2021).
Values joined by “and” are separate entries in the source; they are usually repeats but may differ in a detail not shown here. Equal entries are not always repeated.

Experiments:
[1] = biological target: T1, human P2X4 (Homo sapiens, UniProt Q99571); assay: Human P2X4 HEK Cell FLIPR Assay; format: cell-based; parameters: expressed in transfected cells; host or cells: HEK293; details: HEK293 cells, agonist Bz-ATP at EC80
T1 sequence (Q99571 1-388): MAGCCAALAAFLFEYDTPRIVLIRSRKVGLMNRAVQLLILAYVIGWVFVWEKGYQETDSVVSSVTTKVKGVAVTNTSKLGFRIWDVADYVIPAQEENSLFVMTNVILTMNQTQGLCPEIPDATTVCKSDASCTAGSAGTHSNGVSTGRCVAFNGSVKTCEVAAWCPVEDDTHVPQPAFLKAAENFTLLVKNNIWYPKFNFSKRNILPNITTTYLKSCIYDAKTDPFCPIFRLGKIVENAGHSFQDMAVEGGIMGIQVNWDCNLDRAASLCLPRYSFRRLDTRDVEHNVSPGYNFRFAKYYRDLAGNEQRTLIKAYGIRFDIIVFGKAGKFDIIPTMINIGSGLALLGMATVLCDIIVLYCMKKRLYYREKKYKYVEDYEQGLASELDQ
Method: HEK293 cells stably expressing human P2X4 were plated in poly-D-lysine-coated 384-well plates at a seeding density of 30000 cells/well and incubated overnight. P2X4 function was assessed by measuring intracellular calcium changes using the calcium-chelating dye Fluo8-AM (Molecular Devices) on a fluorescent imaging plate reader (FLEX/FLIPR station; Molecular Devices). On the day of the assay, the medium was removed and the cells were incubated for 30 min at 37° C. and 5% CO2 in 30 μL of dye buffer (Hank's balanced salt solution, 10 mM HEPES, 1.8 mM CaCl2, 1 mM MgCl2, 2 mM probenecid, 5 mM D-glucose monohydrate, 5 μM Fluo8-AM, pH=7.4). Compounds diluted in probenecid buffer (Hank's balanced salt solution, 10 mM HEPES, 1.8 mM CaCl2, 1 mM MgCl2, 2 mM probenecid, 5 mM D-glucose monohydrate, pH=7.4) were added in a volume of 10 μL and allowed to incubate for 30 min at room temperature. The final assay DMSO concentration was 0.5%. The agonist, Bz-ATP (Tocris), was added in a volume of 10 μL at a concentration representing the EC80 value. The EC80 value of Bz-ATP was determined each assay day prior to compound profiling. The fluorescence was measured for an interval of 120 sec at 2 sec intervals. The excitation and emission wavelengths used to monitor fluorescence were 470-495 nm and 515-575 nm, respectively. The data was analyzed based on the increase in peak relative fluorescence units (RFU) compared to the basal fluorescence and the data was normalized to the agonist control. The compounds were tested in triplicates per plate and mean values were plotted in Excel XL-Fit to determine IC50 values, percentage of maximal inhibition and the Hill coefficients.

[2] = biological target: T2, endogenous P2X4 channels (Homo sapiens, UniProt Q99571); assay: Human Monocyte P2X4 Assay (FLIPR); format: cell-based; details: primary human monocytes, 3 μM BzATP, one value per donor; for IC50: read-out: Human P2X4 Monocytes (FLIPR Assay) IC50 for different donors; for Emax: read-out: Human P2X4 Monocytes (FLIPR Assay) Efficacy for different donors
T2 construct: measure calcium influx through endogenous P2X4 channels into primary human monocytes; endogenous in cells; host or cells: primary human monocytes isolated from donor PBMCs
T2 sequence (Q99571 1-388): T1 sequence (Q99571 1-388)
Method: The principle of the assay is to measure calcium influx through endogenous P2X4 channels into primary human monocytes, following activation by 2′,3′-O-(4-benzoyl-benzoyl)-ATP (Bz-ATP). Intracellular calcium concentration changes were measured with a Flipr™ (Molecular Devices) device using a calcium sensitive dye (Fluo-8). In primary monocytes P2X4 is located at the lysosome membrane, therefore exocytosis has to be triggered to expose P2X4 at the cellular membrane.
Human peripheral blood mononuclear cells (PBMCs) from anticoagulated blood (blood cells, BC) were isolated via density gradient centrifugation. Whole blood was diluted 1:3 with PBS. Samples of 30 mL were layered carefully on top of 15 mL Biocoll (BIOCHROM) in 50 mL centrifuge tubes (Falcon). Tubes were centrifuged at 914×g for 25 min at RT without brake. The PBMC layer was removed with a 10 mL pipette and transferred into tubes with ice-cold PBS in a total volume of 50 mL. Cells were washed twice by pelleting at 300×g at 4° C., for 10 min and for 5 min respectively. PBMCs were re-suspended in 10 mL medium (X-vivo, Biozym Scientific) and counted in a Neubauer chamber.
Monocytes were isolated by negative selection using the Monocyte isolation kit II from Miltenyi (#130-091-153) according to the instructions. Isolation should be done fast and cells and solutions should be kept on ice at any time. PBMCs in batches of 10exp8 cells were pelleted (300×g, 10 min) and re-suspended with 300 μL MACS buffer in a 50 mL Falcon tube. FcR Blocking reagent (100 μl) and Biotin-Ab (100 μl) were added, mixed and incubated on ice for 10 min. MACS buffer (300 μL) and anti-Biotin Micro-beads (100 μL) were added, mixed and incubated on ice for 15 min. Cells were washed by pelleting (300×g for 10 min) and re-suspended in 500 μL MACS buffer. For each batch one separation column was placed in the MACS separator and rinsed with 3 mL MACS buffer. The cell suspension was added to the column, followed by 3×3 mL MACS buffer for washing, and the eluent containing the monocytes was collected. Cells were pelleted (300×g for 10 min), re-suspended in X-vivo medium and counted. Monocytes were seeded into fibronectin-coated micro-plates (384-well, black, flat transparent bottom; Corning #3848) at a density of 30,000 cells/well in 50 μL, and cultivated over night (37° C., 5% CO2).
Test substances were dissolved in 100% DMSO at a stock concentration of 10 mM and stored at −20° C. in aliquots. Serial dilutions (2×) were prepared in DMSO and diluted 500× with assay buffer to generate the antagonist plate. In the Flipr measurement, 10 μL per well were transferred (4× dilution) and a final top concentrations of 5 μM and 0.05% DMSO were obtained in the assay. Agonist BzATP was stored at 10 mM in aliquots and diluted to an intermediate concentration of 15 μM to generate the agonist plate. In the Flipr measurement, 10 μL per well were transferred (5× dilution) so that a final assay concentration of 3 μM was obtained.
For the experiment, the medium of the cell plate was discarded manually and 70 μL/well loading buffer was added and incubated for 1 h (37° C., 5% CO2). Loading buffer contained HBSS (w/o calcium/magnesium), 10 mM Hepes pH 7.4, 5 μM Fluo-8 (AM) (Tebu-bio) and 50 mM methylamine (Sigma) to trigger exocytosis. Loading buffer was discarded manually and 30 μL/well low-calcium assay buffer (5 mM KCl, 145 mM NaCl, 0.5 mM CaCl2), 13 mM glucose, 10 mM Hepes pH 7.4) was added. The antagonist plate was transferred (10 μL/well) and after 15 min at RT the agonist plate (10 μL/well) was transferred.
Agonist addition was recorded for 240 seconds after a 10 second baseline. For analysis, a baseline correction was applied, and the maximum of the curve was extracted. Data were normalized towards 0% inhibition (signal at 3 μM BzATP) and 100% inhibition (absence of BzATP stimulation) and fitted with a four-parameter sigmoidal inhibition curve using Prism Graph Pad to obtain IC50 values.

Structure (SMILES)	IC50 [1] [nM]	IC50 [2]	Emax [2] [%]
NS(=O)(=O)c1cc(NC(=O)Cc2ccccc2Cl)ccc1-n1cc(C(F)(F)F)cn1 [Example 19, 2-(2-Chlorophenyl)-N-{3-sulfamoyl-4-[4-(trifluoromethyl)-1H-pyrazol-1-yl]phenyl}acetamide]	47	59 nM (2×) and 21 nM and 76 nM and 45 nM	
NS(=O)(=O)c1cc(NC(=O)Cc2ccccc2Cl)ccc1-c1cnn(C(F)F)c1 [Example 326, 2-(2-Chlorophenyl)-N-{4-[1-(difluoromethyl)-1H-pyrazol-4-yl]-3-sulfamoylphenyl}acetamide]	17	407 nM and 167 nM and 149 nM and 45 nM and 49 nM	
NS(=O)(=O)c1cc(NC(=O)Cc2ccccc2Cl)cnc1-n1cc(C(F)(F)F)cn1 [Example 380, 2-(2-Chlorophenyl)-N-{5-sulfamoyl-6-[4-(trifluoromethyl)-1H-pyrazol-1-yl]pyridin-3-yl}acetamide]	299	263 nM and 251 nM and 434 nM and 93 nM and 50 nM and 207 nM	

Further molecules by falling IC50 [1], results first:

IC50 [1] [nM]	IC50 [2]	Emax [2] [%]	Structure (SMILES)
32	105 nM and 32 nM and 71 nM	88	N#Cc1cnn(-c2ccc(NC(=O)Cc3ccccc3Cl)cc2S(N)(=O)=O)c1 [Example 39, 2-(2-Chlorophenyl)-N-[4-(4-cyano-1H-pyrazol-1-yl)-3-sulfamoylphenyl]acetamide]
27	290 nM and 182 nM	71	NS(=O)(=O)c1cc(NC(=O)Cc2ccccc2Cl)ccc1-n1cc(F)cn1 [Example 26, 2-(2-Chlorophenyl)-N-[4-(4-fluoro-1H-pyrazol-1-yl)-3-sulfamoylphenyl]acetamide]
